Results reported in patent US6933315B2, “Derivatives of isoindigo, indigo and indirubin and methods of treating cancer” (priority 2001, dated 2005).
Where two headings read alike, the source gives them in different places.

Legend:
[1] = design: species or system dogs; details: dog, in vivo
Method: Two dogs were initially tested for sub-acute toxicity of Meisoindigo. They were orally given 10 mg/kg daily for 3 months.
Since no major toxicities were found during the initial study, an additional 3 dogs were tested by orally giving them a higher dose (20 mg/kg). Among them, one dog was given 20 mg/kg for 46 days, and another 2 dogs given for 2 months. […] However, all of those symptoms disappeared after the termination of the treatment of Meisoindigo.

[2] = system: TA97, TA98, TA100 and TA102; assay: Reverse mutation, Ames test; format: cell-based, salmonella typhimurium; details: +S9 and −S9, Meisoindigo 2, 20, 50, 100 and 200 μg/dish
Method: Meisoindigo at concentrations of 2, 20, 50, 100 and 200 μg/dish (10 cm), metabolically activated (+S9) and inactivated (−S9), were tested in strains of TA97, TA98, TA100 and TA102 (amino acid deficit salmonella typhimurium) respectively. Daunomycin, 2-aminofluorene (2AF), methylmethanesulfonate (MMS), 2,7-2AF, and 2-hydroxy-anthraquinone were used as positive controls.

Chronic toxicity in dogs = format: in vivo
Method: On the basis of above initial tests, the sub-acute toxicities of Meisoindigo were further examined in dogs. Twelve dogs were randomly divided into 3 groups each having equal numbers of males and females, and orally given Meisoindigo at doses of 0, 5, and 10 mg/kg daily, respectively, for 6 months. […] All parameters tested, in all animals, including controls fluctuated within normal ranges.
Twenty-four hours after the termination of Meisoindigo, half of the animal of each group were sacrificed, and dissected for pathological examination.

Lewis Lung Cancer = assay: Anticancer activity in Lewis lung carcinoma animal model; format: in vivo, C57 mice; details: mice, oral, Indirubin 100 × 9, Meisoindigo 106 × 9 mg/kgxd
Method: Briefly, C57 mice, body weight between 18 to 22 grams, and rat, body weight between 50 to 55 grams, were randomly divided into several groups, ten of each, respectively. Approximately 2×10^6 of Lewis cancer cells or Walker sarcoma cells were transplanted into mice or rat. […] The animals in the control group were given 0.1 ml saline (drug vehicle, negative control) for the same periods of time as treated group. The animals at end of the treatment were sacrificed and tumors were removed and weighed.

[3] = system: extracellular signal-regulated protein kinase 2 (ERK2); assay: ERK2 activity from treated LNCaP cells; format: cell-based, Human; details: as high as 15 μM, 24 hrs
Method: (§1) Assay for cyclin dependent kinase activity: HUVEC and LNCaP cells were cultured in EMB (endothelial cell basal medium) and RPMI 1640 containing 10% FBS, respectively. The cells grown exponentially were exposed to indicated concentrations of meisoindigo or NATURA for 24 hr. The cells were harvested, washed, and total proteins extracted as described previously. One hundred μg of the proteins were immuno-precipitated using antibodies against cdk2, cdk4/6, PKC, ERK2 or cyclin D1 overnight at 4° C. in the presence of a cocktail of protease inhibitors. […] The phosphorylated histone H1 (represent cdk activity) was measured by scintillation counting or by SDS-polyacrylaimde gel electrophoresis. The direct inhibitory effects of Meisoindigo and NATURA were also measured by reaction of immuno-purified specific enzyme from untreated cells directly with the Meisoindigo or NATURA. […]
(§2) LNCaP cells at exponential growth phase were exposed to different concentrations of NATURA (panel A & B) for 24 hrs, or to PD98059 (panel C) for 15 min. […] Upper panels are the imagines of x-ray films from SDS-PAGE, and lower panels represent the densities of each band from the films determined by an Imagine Densitometer from the same films (expressed as the percent of control).

protein kinase C (PKC) = assay: PKC activity from treated LNCaP cells; format: cell-based, Human; details: as high as 15 μM, 24 hrs
Method: as §1, §2

Solubility description = format: physicochemical
[4] = molecular target: T1, immuno-purified cdk2 from LNCaP cells (Homo sapiens, UniProt P24941); assay: Direct inhibition of immuno-purified cdk2 activity in vitro; format: biochemical
T1 construct: Two hundred mg of total protein extracts were immuno-precipitated with cdk2 antibody overnight at 4° C
Method: (§3) Assay for cyclin dependent kinase activity: HUVEC and LNCaP cells were cultured in EMB (endothelial cell basal medium) and RPMI 1640 containing 10% FBS, respectively. The cells grown exponentially were exposed to indicated concentrations of meisoindigo or NATURA for 24 hr. The cells were harvested, washed, and total proteins extracted as described previously. One hundred μg of the proteins were immuno-precipitated using antibodies against cdk2, cdk4/6, PKC, ERK2 or cyclin D1 overnight at 4° C. in the presence of a cocktail of protease inhibitors. The immuno-precipitates were washed 4 times with protein extraction buffer and once with kinase assay buffer, and reacted with 75 μg/ml histone H1 in the presence of [γ-^32P]-ATP (2.5 μCi/10 μM). The phosphorylated histone H1 (represent cdk activity) was measured by scintillation counting or by SDS-polyacrylaimde gel electrophoresis. The direct inhibitory effects of Meisoindigo and NATURA were also measured by reaction of immuno-purified specific enzyme from untreated cells directly with the Meisoindigo or NATURA.
When immuno-purified cdk2 from LNCaP cells was reacted with histone H1 in the presence of different concentrations of NATURA-β and γ-[^32P]-ATP (2.5 μCi/[…]), the enzyme activity was decreased in a concentration-dependent manner.
Two hundred mg of total protein extracts were immuno-precipitated with cdk2 antibody overnight at 4° C. After 4 washes with PBSTDS, and once with kinase assay buffer, the immuno-purified enzyme was then reacted for 10 min with 10 mg of histone H1 in the presence of different concentrations of NATURA or 50 mM of genistein (as a positive control) and γ-[^32P]-ATP (2.5 mCi/10 mM). The phosphorylated histone H1 (reflecting cdk2 activity) was detected either by SDS-PAGE (upper panel), or radioactive scintillation counting (lower panel, after eliminating free γ-[^32P]-ATP).

cdk2 = cdk2 activity immuno-precipitated from treated LNCaP cells; format: cell-based, Human; details: 24 hours incubation with LNCaP cells
Method: as §3
LNCaP cells grown exponentially were exposed to different concentrations of NATURA for 24 hrs. […] The upper panels (A & B) are imagines of the films from SDS-PAGE, and lower panels represent the density measured by an Imagine Densitometer from the same films (expressed as percent of control).

[5] = oral, 5 and 10 mg/kg daily for 6 months

Compound | histochemical examinations [1] | biochemical changes of blood, liver, and kidney ([1]; po, 10 mg/kg) | clinical observations ([1]; po, 10 mg/kg) | clinical observations ([1]; po, 20 mg/kg) | tested parameters ([1]; po, 20 mg/kg) | reverse mutations (Ames test) [2] | pathological examination of heart, liver, lung, kidney, stomach, gastro intestine, testis, ovary, lymph node (Chronic toxicity in dogs; 24 hours after termination of 6 months dosing) | clinical observations (Chronic toxicity in dogs; [5]) | hemogram, functions of liver (SGPT), kidney (BUN) and heart (ECG) vs control (Chronic toxicity in dogs; [5]) | Inhibition (%) (Lewis Lung Cancer) | Tumor Size X ± SD (Lewis Lung Cancer) | effect on ERK2 activity [3] | effect on PKC activity (protein kinase C (PKC)) | solubility in dimethyl sulfoxide (DMSO) (Solubility description) | solubility in ethanol, acetone, chloroform (Solubility description) | solubility in water (Solubility description) | inhibition at 10 µM ([4]; 10 μM compound, ATP concentration as high as 100 μM, read-out: inhibitory effect on immuno-purified cdk2, ATP competing assay) [%] | IC50 ([4]; immuno-purified cdk2, histone H1, γ-[32P]-ATP 2.5 μCi/20 μM) [nM] | inhibition of cdk2 enzyme activity (cdk2; 5.0 μM) | inhibition of cdk2 enzyme activity (cdk2; 15 μM) [%]
CN1C(=O)/C(=C2/C(=O)Nc3ccccc32)c2ccccc21 [Meisoindigo] | cellular edema, fatty degeneration, and scatter hyperplasia inflammation in liver tissues | No biochemical changes | Minor gastro intestinal irritations were observed occasionally | intestinal irritations at various degrees | No abnormalities | No induction of reverse mutations | No abnormalities | minor gastro-intestinal irritations | No significant differences | 48.6 ± 4.1 | 1.80 ± 0.15 | – | – | – | – | – | – | – | – | –
CC(=O)OC1COC(N2C(=O)/C(=C3/C(=O)Nc4ccccc43)c3ccccc32)C(OC(C)=O)C1OC(C)=O [NATURA, 1-(β-D-O-Triacetyl-xylopyranosyl)-isoindigo] | – | – | – | – | – | – | – | – | – | – | – | No inhibitory effect | No inhibitory effect | soluble | slightly dissolves | rarely dissolves | > 50 | 1600 ± 200 | approximately 46% | ~92
